We go through 31 compounds from US9951065B2 (Gilead Sciences, Inc., priority 2015, dated 2018).

Molecules are shown by their SMILES. Where only a bound is given, the exact number is not on record here.

In the first assay the target is T1, IDO1 (Homo sapiens, UniProt P14902).
T1 construct: HeLa cells were treated with a test compound in the presence of IFNγ, which induces IDO1 expression; host or cells: H1-HeLa cells, IDO1 induced with IFNγ
T1 sequence (P14902 whole entry): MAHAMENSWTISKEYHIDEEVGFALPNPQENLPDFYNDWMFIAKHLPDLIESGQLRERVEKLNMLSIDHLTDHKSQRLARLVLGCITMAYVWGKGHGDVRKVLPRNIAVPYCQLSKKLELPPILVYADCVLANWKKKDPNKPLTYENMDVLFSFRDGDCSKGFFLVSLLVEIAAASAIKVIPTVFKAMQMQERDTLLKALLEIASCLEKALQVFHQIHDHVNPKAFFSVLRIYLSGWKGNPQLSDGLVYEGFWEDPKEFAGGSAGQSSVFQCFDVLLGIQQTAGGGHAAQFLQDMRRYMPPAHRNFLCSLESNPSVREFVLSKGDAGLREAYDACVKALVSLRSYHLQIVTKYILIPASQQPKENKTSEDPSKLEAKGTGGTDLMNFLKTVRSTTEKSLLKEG
Kind of assay: Cell-based (HeLa) assay for measurement of IDO1 inhibition (kynurenine levels in supernatant after IFNγ induction). To be noted: HeLa cells, IFNγ-induced IDO1, kynurenine in supernatant after 48 hour incubation; geometric mean of a minimum of four determinations. In short, it runs like this: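 IDO1 activity is read as kynurenine released into the medium, detected with Ehrlich's reagent (p-dimethylaminobenzaldehyde) at 480 nm after TCA treatment. HeLa cells were exposed 48 h to compounds in 0.5% DMSO alongside IFNγ induction. Values normalized to no-IFNγ and IFNγ controls; four-parameter EC50 given as geometric mean of ≥4 determinations.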
Usually EC50 stands for the midpoint of the concentration-response curve. A low value points to higher potency in that assay. For the compound `CN(C)Cc1nc2c(F)ccc(/C(=N/O)Nc3ccc(F)c(Cl)c3)c2[nH]1` [Example 288, N-(3-chloro-4-fluorophenyl)-2-((dimethylamino)methyl)-4-fluoro-N′-hydroxy-1H-benzo[d]imidazole-7-carboximidamide], the EC50 turned out to be 1.82 µM.

In turn, `O/N=C(\Nc1ccc(F)c(Cl)c1)c1ccnc2nc(CNCC3CC3)[nH]c12` [Example 117, N-(3-Chloro-4-fluorophenyl)-2-(((cyclopropylmethyl)amino)methyl)-N′-hydroxy-1H-imidazo[4,5-b]pyridine-7-carboximidamide] registered an EC50 of 0.765 µM.

On to `CN(C)Cc1nc2c(/C(=N/O)Nc3ccc(F)c(Cl)c3)cc(F)c(F)c2[nH]1` [Example 52, N-(3-Chloro-4-fluorophenyl)-2-((dimethylamino)methyl)-6,7-difluoro-N′-hydroxy-4H-benzo[d]imidazole-4-carboximidamide], for which the midpoint of the response, the EC50, lay at 0.526 µM.

The compound `O/N=C(\Nc1ccc(F)c(Br)c1)c1ccnc2nc(NCCN3CCOCC3)[nH]c12` [Example 238, N-(3-bromo-4-fluorophenyl)-N′-hydroxy-2-((2-morpholinoethyl)amino)-1H-imidazo[4,5-b]pyridine-7-carboximidamide] returned an EC50 of 0.853 µM.

`CS(=O)(=O)NCCc1nc2c(F)c(F)cc(/C(=N/O)Nc3ccc(F)c(Cl)c3)c2[nH]1` [Example 210, N-(3-chloro-4-fluorophenyl)-4,5-difluoro-N′-hydroxy-2-(2-(methylsulfonamido)ethyl)-1H-benzo[d]imidazole-7-carboximidamide] yielded an EC50 of more than 10 µM.

Compound `CCc1cccc(N/C(=N\O)c2ccnc3nc[nH]c23)c1` [Example 96, N-(3-Ethylphenyl)-N′-hydroxy-1H-imidazo[4,5-b]pyridine-7-carboximidamide] yielded an EC50 of 0.803 µM.

Compound `CCN(CC)CCNc1nc2nccc(/C(=N/O)Nc3ccc(F)c(Cl)c3)c2[nH]1` [Example 167, N-(3-Chloro-4-fluorophenyl)-2-((2-(diethylamino)ethyl)amino)-N′-hydroxy-1H-imidazo[4,5-b]pyridine-7-carboximidamide] registered a half-maximal effective concentration (EC50) of 2.91 µM.

Take `O/N=C(\Nc1ccc(F)c(Cl)c1)c1cc(F)c(F)c2nc(NC3CC(O)C3)[nH]c12` (stereo not shown) [Example 296, N-(3-chloro-4-fluorophenyl)-4,5-difluoro-N′-hydroxy-2-((3-hydroxycyclobutyl)amino)-1H-benzo[d]imidazole-7-carboximidamide]: the 50% effective concentration (EC50) is more than 10 µM.

`CN(CCNc1nc2nccc(/C(=N/O)Nc3ccc(F)c(Cl)c3)c2[nH]1)C1CC1` [Example 231, N-(3-chloro-4-fluorophenyl)-2-((2-(cyclopropyl(methyl)amino)ethyl)amino)-N′-hydroxy-1H-imidazo[4,5-b]pyridine-7-carboximidamide] displayed a concentration giving a half-maximal response (EC50) of 0.291 µM.

`CC(C)NCc1nc2c(/C(=N/O)Nc3ccc(F)c(Cl)c3)cc(F)c(F)c2[nH]1` [Example 51, N-(3-Chloro-4-fluorophenyl)-6,7-difluoro-N′-hydroxy-2-((isopropylamino)methyl)-1H-benzo[d]imidazole-4-carboximidamide] gave an EC50 of 0.566 µM. Compared with the last compound, the EC50 is about 1.9-fold higher.

`O/N=C(\Nc1ccc(F)c(Cl)c1)c1cccc2nc[nH]c12` [Example 8, N-(3-Chloro-4-fluorophenyl)-N′-hydroxy-1H-benzo[d]imidazole-7-carboximidamide] showed an EC50 of 1.79 µM.

`O/N=C(\Nc1ccc(F)c(Cl)c1)c1ccnc2nc(NCCN3CCCC(F)C3)[nH]c12` (stereo not shown) [Example 237, N-(3-chloro-4-fluorophenyl)-2-((2-(3-fluoropiperidin-1-yl)ethyl)amino)-N′-hydroxy-1H-imidazo[4,5-b]pyridine-7-carboximidamide] displayed an EC50 of 0.442 µM.

Compound `O/N=C(\Nc1ccc(F)c(Cl)c1)c1ccnc2nc(C(O)C(F)(F)F)[nH]c12` (stereo not shown) [Example 176, N-(3-Chloro-4-fluorophenyl)-N′-hydroxy-2-(2,2,2-trifluoro-1-hydroxyethyl)-1H-imidazo[4,5-b]pyridine-7-carboximidamide] came in with a concentration for a half-maximal effect (EC50) of 4.2 µM.

In turn, `O/N=C(\Nc1ccc(F)c(Cl)c1)c1cc(F)c(F)c2nc(NCCN3CCOCC3)[nH]c12` [Example 23, N-(3-Chloro-4-fluorophenyl)-4,5-difluoro-N′-hydroxy-2-((2-morpholinoethyl)amino)-1H-benzo[d]imidazole-7-carboximidamide] yielded an EC50 of 0.346 µM.

Compound `CN(C)Cc1nc2nccc(/C(=N/O)Nc3ccc(F)c(Cl)c3)c2[nH]1` [Example 113, N-(3-Chloro-4-fluorophenyl)-2-((dimethylamino)methyl)-N′-hydroxy-1H-imidazo[4,5-b]pyridine-7-carboximidamide] displayed an EC50 of 1.84 µM.

With `CC(C)c1cc(N/C(=N\O)c2ccnc3nc[nH]c23)ccc1F` [Example 93, N-(4-Fluoro-3-isopropylphenyl)-N′-hydroxy-1H-imidazo[4,5-b]pyridine-7-carboximidamide], the concentration giving a half-maximal response (EC50) is 5.1 µM.

`O/N=C(\Nc1ccc2occc2c1)c1ccnc2nc[nH]c12` [Example 70, N-(benzofuran-5-yl)-N′-hydroxy-1H-imidazo[4,5-b]pyridine-7-carboximidamide] gave a half-maximal effective concentration (EC50) of 1.48 µM. Against the preceding compound, the EC50 is about 3.4-fold lower.

Staying with this assay, now noted: HeLa cells, IFNγ-induced IDO1, kynurenine in supernatant, 48 hour incubation; geometric mean of a minimum of four determinations.
In the case of `O/N=C(\Nc1ccc(F)c(Cl)c1)c1ccc(F)c2nc(NCCN3CCOCC3)[nH]c12` [Example 368, N-(3-chloro-4-fluorophenyl)-4-fluoro-N′-hydroxy-2-((2-morpholinoethyl)amino)-1H-benzo[d]imidazole-7-carboximidamide], the midpoint of the response, the EC50, lay at 4 µM.

For `O/N=C(\Nc1ccc(F)c(Cl)c1)c1cc(F)c(F)c2nc(NC3CNCCOC3)[nH]c12` (stereo not shown) [Example 477, 2-((1,4-oxazepan-6-yl)amino)-N-(3-chloro-4-fluorophenyl)-4,5-difluoro-N′-hydroxy-1H-benzo[d]imidazole-7-carboximidamide], it took 1.53 µM to reach a half-maximal effect (EC50). This EC50 is about 2.6-fold lower than that of the compound before.

`CN(C)CCNc1nc2c(F)c(F)cc(/C(=N/O)Nc3cccc(Cl)c3)c2[nH]1` [Example 431, N-(3-chlorophenyl)-2-((2-(dimethylamino)ethyl)amino)-4,5-difluoro-N′-hydroxy-1H-benzo[d]imidazole-7-carboximidamide] yielded a half-maximal effective concentration (EC50) of 0.139 µM.

Turning to `CN1CCC(Nc2nc3c(F)c(F)cc(/C(=N/O)Nc4ccc(F)c(Cl)c4)c3[nH]2)CC1` [Example 442, N-(3-chloro-4-fluorophenyl)-4,5-difluoro-N′-hydroxy-2-((1-methylpiperidin-4-yl)amino)-1H-benzo[d]imidazole-7-carboximidamide], the EC50 was found to be 2.88 µM.

`CCN(CC)[C@@H]1COC[C@H]1Nc1nc2c(F)c(F)cc(/C(=N/O)Nc3ccc(F)c(Cl)c3)c2[nH]1` [Example 476, N-(3-chloro-4-fluorophenyl)-2-(((3S,4S)-4-(diethylamino)tetrahydrofuran-3-yl)amino)-4,5-difluoro-N′-hydroxy-1H-benzo[d]imidazole-7-carboximidamide] registered a concentration giving a half-maximal response (EC50) of 0.468 µM.

In turn, `O/N=C(\Nc1ccc(F)c(Cl)c1)c1cc(F)c(F)c2nc(N[C@@H]3CCCCNC3)[nH]c12` [Example 463, (R)-2-(azepan-3-ylamino)-N-(3-chloro-4-fluorophenyl)-4,5-difluoro-N′-hydroxy-1H-benzo[d]imidazole-7-carboximidamide] showed a half-maximal effective concentration (EC50) of 1.02 µM.

Regarding `Nc1nc2cc(F)cc(/C(=N/O)Nc3ccc(F)c(Cl)c3)c2[nH]1` [Example 370, 2-amino-N-(3-chloro-4-fluorophenyl)-5-fluoro-N′-hydroxy-1H-benzo[d]imidazole-7-carboximidamide], the EC50 was 1.08 µM. The EC50 values of the last two compounds are within 1.5-fold of each other.

The compound `O/N=C(\Nc1ccc(F)c(Cl)c1)c1cc(F)c(F)c2nc(N[C@@H]3CCCNC3)[nH]c12` [Example 446, (R)—N-(3-chloro-4-fluorophenyl)-4,5-difluoro-N′-hydroxy-2-(piperidin-3-ylamino)-1H-benzo[d]imidazole-7-carboximidamide] had a half-maximal effective concentration (EC50) of 1.49 µM.

As to `O=S1(=O)CCN(CCNc2nc3c(F)c(F)cc(/C(=N/O)Nc4ccc(F)c(Cl)c4)c3[nH]2)CC1` [Example 374, N-(3-chloro-4-fluorophenyl)-2-((2-(1,1-dioxidothiomorpholino)ethyl)amino)-4,5-difluoro-N′-hydroxy-1H-benzo[d]imidazole-7-carboximidamide], it took 2.4 µM to reach a half-maximal effect (EC50).

Consider `CN1CCCCC(Nc2nc3c(F)c(F)cc(/C(=N/O)Nc4ccc(F)c(Cl)c4)c3[nH]2)C1` (stereo not shown) [Example 451, N-(3-chloro-4-fluorophenyl)-4,5-difluoro-N′-hydroxy-2-((1-methylazepan-3-yl)amino)-1H-benzo[d]imidazole-7-carboximidamide], for which the half-maximal effective concentration (EC50) came out at 0.205 µM.

Turning to `COC(=O)NCCNc1nc2c(F)c(F)cc(/C(=N/O)Nc3ccc(F)c(Cl)c3)c2[nH]1` [Example 337, Methyl (2-((7-(N-(3-chloro-4-fluorophenyl)-N′-hydroxycarbamimidoyl)-4,5-difluoro-1H-benzo[d]imidazol-2-yl)amino)ethyl)carbamate], the midpoint of the response, the EC50, lay at 4.41 µM.

Consider `CN(C)CCNc1nc2cc(F)cc(/C(=N/O)Nc3ccc(F)c(Cl)c3)c2[nH]1` [Example 379, N-(3-chloro-4-fluorophenyl)-2-((2-(dimethylamino)ethyl)amino)-5-fluoro-N′-hydroxy-1H-benzo[d]imidazole-7-carboximidamide], for which the midpoint of the response, the EC50, lay at 0.435 µM. This EC50 lies about 10-fold lower than the previous one.

In the case of `CC(CCNc1nc2c(F)c(F)cc(/C(=N/O)Nc3ccc(F)c(Cl)c3)c2[nH]1)N(C)C` (stereo not shown) [Example 353, N-(3-chloro-4-fluorophenyl)-2-((3-(dimethylamino)butyl)amino)-4,5-difluoro-N′-hydroxy-1H-benzo[d]imidazole-7-carboximidamide], a half-maximal effect (EC50) was put at 1.29 µM.

`CN(C)CC(C)(C)CNc1nc2c(F)ccc(/C(=N/O)Nc3ccc(F)c(Cl)c3)c2[nH]1` [Example 381, N-(3-chloro-4-fluorophenyl)-2-((3-(dimethylamino)-2,2-dimethylpropyl)amino)-4-fluoro-N′-hydroxy-1H-benzo[d]imidazole-7-carboximidamide] showed an EC50 of 3.03 µM.
